{
  "source": "patent US20240076609A1",
  "about": "“COMPOSITIONS AND METHODS FOR CULTURING AND EXPANDING CELLS” (LIFE TECHNOLOGIES CORPORATION, priority 2017, published 2024)",
  "format_in_all_cases": "cell-based, human",
  "key": {"[1]": {"system": "Pan CD3+ T cells", "experiment": "CD8+/CD4+ phenotype by flow cytometry after 10 days with 2-DG", "conditions": "for CD8+ T cell population (frequency): day 10", "description": "(§1) Phenotype: Primary human T cells were expanded for 10 days with and without 2-DG and 5% human AB serum. DYNABEADS® were removed from 2×10^6 cells by magnetic separation. Surface staining was performed with antibodies against CD3 (Invitrogen, Cat. No. CD0329), CD4 (Molecular Probes, Cat. No. A15858), CD8 (Invitrogen, Cat. No. MHCD0828). Flow cytometric analysis was performed on a Gallios flow cytometer and Kaluza software (Beckman Coulter, Indianapolis IN). Phenotype: Primary human T cells were expanded for 10 days with and without 2-DG and 5% human AB serum. DYNABEADS® were removed from 2×10^6 cells by magnetic separation. Surface staining was performed with antibodies against CD3 (Invitrogen, Cat. No. CD0329), CD4 (Molecular Probes, Cat. No. A15858), CD8 (Invitrogen, Cat. No. MHCD0828). Flow cytometric analysis was performed on a Gallios flow cytometer and Kaluza software (Beckman Coulter, Indianapolis IN)."}, "[2]": {"system": "Non-naïve T cells", "experiment": "CD8+/CD4+ phenotype after 10 days with 2-DG in non-naïve T cells", "conditions": "4 mM 2-DG", "description": "as §1, with “For some studies, CD8+ and CD4+ T cells were isolated from PBMCs by negative selection using Untouched Human CD8+ and CD4+ T Cells Kits. Naïve and non-naïve T cells were isolated from enriched T cells by positive selection using CD45RA nanobeads (Miltenyi). Phenotype: Primary” for “Phenotype: Primary”, “Indianapolis IN). For some studies, CD8+ and CD4+ T cells were isolated from PBMCs by negative selection using Untouched Human CD8+ and CD4+ T Cells Kits. Naïve and non-naïve T cells were isolated from enriched T cells by positive selection using CD45RA nanobeads (Miltenyi). Phenotype: Primary” for “Indianapolis IN). Phenotype: Primary”"}, "[3]": {"system": "Non-naïve T cells", "experiment": "Expansion of non-naïve T cells with 2-DG", "conditions": "4 mM 2-DG", "description": "T cell activation and expansion: T cells (seeding density 1×10^6 vc/mL) were activated with DYNABEADS® Human T-Expander CD3/CD28 (Thermo Fisher Scientific, Cat. No. 11141D) at a ratio of 3 beads per T cell and cultured in serum-free medium, animal origin free medium. T cells were counted on days 5, 7, 10, and 12 on a Vi-CELL XR analyzer (Beckman Coulter, Indianapolis IN) and fed with or without 2-DG (0.25 mM, 0.5 mM, 1 mM, 2 mM, and 4 mM) and 5% human AB serum to a density of 5×10^5 vc/mL on days 3, 5, and 7 and 1×10^6 vc/mL on day 10. For some studies, CD8+ and CD4+ T cells were isolated from PBMCs by negative selection using Untouched Human CD8+ and CD4+ T Cells Kits. Naïve and non-naïve T cells were isolated from enriched T cells by positive selection using CD45RA nanobeads (Miltenyi). […]"}, "[4]": {"conditions": "0.25 mM 2-DG, Day 10 of culture"}, "[5]": {"conditions": "0.25 mM 2-DG, Day 10, single donors"}, "[6]": {"conditions": "0.5 mM 2-DG, Day 10, single donors"}, "[7]": {"conditions": "Day 10, non-naïve T cells, replicates"}},
  "note": "“And” between values parts separate entries of the source, which are not always exact repeats. Identical values can stand only once. “Also recorded” adds a separate entry of the source.",
  "data": [
    {"smiles": "O=CC[C@@H](O)[C@H](O)[C@H](O)CO", "note": "[2-DG, 2-Deoxy-D-Glucose]", "values": [
      {"measurement": "% CD4+", "setting": "[1]; [4]", "result": "39.21% and 32.39% and 22.68%"},
      {"measurement": "% CD8+", "setting": "[1]; [4]", "result": "53.46% and 63.2% and 70.32%"},
      {"measurement": "% Ratios (CD8+/CD4+) (Avg)", "setting": "[1]; 0.25 mM 2-DG, Day 10 of culture, average", "result": 2.1},
      {"measurement": "Fold Increase compared to Baseline", "setting": "[1]; 0.25 mM 2-DG, Day 10 vs Day 0 CD8+/CD4+ ratio", "result": "3.02 and 2.49 and 3.99"},
      {"measurement": "% Ratios (CD8+/CD4+) (Avg)", "setting": "[1]; 0.25 mM 2-DG, Day 10", "result": 2.1},
      {"measurement": "% CD4+", "setting": "[1]; [5]", "result": "39.21% and 32.39% and 22.68%"},
      {"measurement": "% CD8+", "setting": "[1]; [5]", "result": "53.46% and 63.2% and 70.32%"},
      {"measurement": "% Ratios (CD8+/CD4+)", "setting": "[1]; [5]", "result": "1.36 and 1.95 and 3.10"},
      {"measurement": "Fold Increase (Avg)", "setting": "[1]; 0.25 mM 2-DG, Day 10 vs Day 0", "result": 3.2},
      {"measurement": "Fold Increase in CD8+ to CD4+ ratio", "setting": "[1]; 0.25 mM 2-DG, Day 10 vs Day 0, single donors", "result": "3.02 and 2.49 and 3.99"},
      {"measurement": "CD8+ T cell population (frequency)", "setting": "[1]; 0.25 mM and 0.5 mM 2-DG, single donor", "result": 48, "unit": "%"},
      {"measurement": "% CD4+", "setting": "[1]; 0.5 mM 2-DG, Day 10 of culture", "result": "37.08% and 29.85% and 23.85%"},
      {"measurement": "% CD8+", "setting": "[1]; 0.5 mM 2-DG, Day 10 of culture", "result": "55.04% and 66.57% and 68.64%"},
      {"measurement": "% Ratios (CD8+/CD4+)", "setting": "[1]; 0.5 mM 2-DG, Day 10 of culture", "result": "1.48 and 2.23 and 2.88"},
      {"measurement": "% Ratios (CD8+/CD4+) (Avg)", "setting": "[1]; 0.5 mM 2-DG, Day 10 of culture, average", "result": 2.2},
      {"measurement": "Fold Increase compared to Baseline", "setting": "[1]; 0.5 mM 2-DG, Day 10 vs Day 0 CD8+/CD4+ ratio", "result": "3.29 and 2.85 and 3.7"},
      {"measurement": "% Ratios (CD8+/CD4+) (Avg)", "setting": "[1]; 0.5 mM 2-DG, Day 10", "result": 2.2},
      {"measurement": "% CD4+", "setting": "[1]; [6]", "result": "37.08% and 29.85% and 23.85%"},
      {"measurement": "% CD8+", "setting": "[1]; [6]", "result": "55.04% and 66.57% and 68.64%"},
      {"measurement": "% Ratios (CD8+/CD4+)", "setting": "[1]; [6]", "result": "1.48 and 2.23 and 2.88"},
      {"measurement": "Fold Increase (Avg)", "setting": "[1]; 0.5 mM 2-DG, Day 10 vs Day 0", "result": 3.6},
      {"measurement": "Fold Increase in CD8+ to CD4+ ratio", "setting": "[1]; 0.5 mM 2-DG, Day 10 vs Day 0, single donors", "result": "3.29 and 2.85 and 3.7"},
      {"measurement": "% CD4+", "setting": "[1]; 1 mM 2-DG, Day 10, Table 26", "result": 50, "unit": "%"},
      {"measurement": "% CD8+", "setting": "[1]; 1 mM 2-DG, Day 10, Table 26", "result": 42, "unit": "%"},
      {"measurement": "% Ratios (CD8+/CD4+)", "setting": "[1]; 1 mM 2-DG, Day 10, Table 26", "result": 0.85},
      {"measurement": "Fold Increase compared to Baseline", "setting": "[1]; 1 mM 2-DG, Day 10 vs Day 0, Table 26", "result": 2.18},
      {"measurement": "% CD4+", "setting": "[1]; 2 mM 2-DG, Day 10, Table 26", "result": 42, "unit": "%"},
      {"measurement": "% CD8+", "setting": "[1]; 2 mM 2-DG, Day 10, Table 26", "result": 50, "unit": "%"},
      {"measurement": "% Ratios (CD8+/CD4+)", "setting": "[1]; 2 mM 2-DG, Day 10, Table 26", "result": 1.18},
      {"measurement": "Fold Increase compared to Baseline", "setting": "[1]; 2 mM 2-DG, Day 10 vs Day 0, Table 26", "result": 3.01},
      {"measurement": "Fold Increase in CD8+ to CD4+ ratio", "setting": "[1]; 4 mM 2-DG, 10 days", "result": 4.1, "unit": "fold"},
      {"measurement": "% CD4+", "setting": "[1]; 4 mM 2-DG, Day 10, Table 26", "result": 23, "unit": "%"},
      {"measurement": "% CD8+", "setting": "[1]; 4 mM 2-DG, Day 10, Table 26", "result": 63, "unit": "%"},
      {"measurement": "% Ratios (CD8+/CD4+)", "setting": "[1]; 4 mM 2-DG, Day 10, Table 26", "result": 2.80},
      {"measurement": "Fold Increase compared to Baseline", "setting": "[1]; 4 mM 2-DG, Day 10 vs Day 0, Table 26", "result": 7.15},
      {"measurement": "CD8+ T cell population (frequency)", "setting": "[1]; 4 mM 2-DG", "result": 63, "unit": "%"},
      {"measurement": "effect on CD8+:CD4+ ratio in non-naïve T cells", "setting": "[2]; 10 days", "result": "lesser effect"},
      {"measurement": "% CD4+ (Avg)", "setting": "[2]; Day 10, non-naïve T cells", "result": 81.08, "unit": "%"},
      {"measurement": "% CD8+ (Avg)", "setting": "[2]; Day 10, non-naïve T cells", "result": 12.23, "unit": "%"},
      {"measurement": "% Ratios (CD8+/CD4+)", "setting": "[2]; Day 10, non-naïve T cells", "result": 0.15},
      {"measurement": "% CD4+", "setting": "[2]; [7]", "result": "80.85% and 81.31%"},
      {"measurement": "% CD8+", "setting": "[2]; [7]", "result": 12.23, "unit": "%"},
      {"measurement": "Fold Increase compared to Baseline", "setting": "[2]; Day 10 vs Day 0, non-naïve T cells", "result": 0.35},
      {"measurement": "effect of 2-DG on growth of non-naïve T cells", "setting": "[3]; 12 days", "result": "did not affect growth of either cell type; also recorded: modest effect"},
      {"measurement": "Cultured Non-Naïve T Cell Population Doublings", "setting": "[3]; day 5", "result": "−0.24"},
      {"measurement": "Cultured Non-Naïve T Cell Population Doublings", "setting": "[3]; day 7", "result": 1.25},
      {"measurement": "Cultured Non-Naïve T Cell Population Doublings", "setting": "[3]; day 10", "result": 3.37},
      {"measurement": "Cultured Non-Naïve T Cell Population Doublings", "setting": "[3]; day 12", "result": 4.64}
    ]}
  ]
}
